Experimental data published in paper PMC9104013, “Role of Polyamine-Induced Dimerization of Antizyme in Its Cellular Functions” (International Journal of Molecular Sciences, 2022).

Assays:
mouse OAZ1 (mOAZ1) = biological target: T1, mouse OAZ1 (mOAZ1) (Mus musculus, UniProt P54369); experiment: Isothermal titration calorimetry of polyamines binding to mOAZ1; details: for ΔH (enthalpy variation) / Ka (affinity constant): pH 7.5; for ΔH (enthalpy variation): SD did not exceed ±20%; for Ka (affinity constant): SD did not exceed ±25%; for Binding to mOAZ1: under the conditions used; for TΔS (entropy variation): calculated from TΔS = ΔH + RTlnKa; for Kd: read-out: Kd (dissociation constant)
T1 construct: Full-length mOAZ1 protein was successfully produced in E. coli; made in house; host or cells: Escherichia coli Rosetta (DE3)
T1 sequence (P54369 whole entry): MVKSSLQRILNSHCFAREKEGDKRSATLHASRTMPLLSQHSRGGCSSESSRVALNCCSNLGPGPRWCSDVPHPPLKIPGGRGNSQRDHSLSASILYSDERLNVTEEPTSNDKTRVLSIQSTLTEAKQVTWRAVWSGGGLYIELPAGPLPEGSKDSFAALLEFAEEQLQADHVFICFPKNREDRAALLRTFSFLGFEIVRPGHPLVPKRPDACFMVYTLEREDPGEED
Experimental: For the precise isothermal titration calorimetry (ITC) experiments only freshly purified samples turned out to be suitable. The thermodynamic parameters of polyamines binding to OAZ1 were measured using a MicroCal iTC200 instrument (GE Healthcare, Chicago, IL, USA) as described elsewhere. Experiments were carried out at 31 °C in buffer containing 25 mM potassium phosphate, pH 7.5; 150 mM KCl; 25% (v/v) glycerol; 1 mM 2-mercaptoethanol; and 1 mM PMSF. Aliquots (2.5 μL) of ligands were injected into a 0.2 mL cell containing the protein solution to achieve a complete binding isotherm. Protein and ligand concentrations were 20 μM and 200 μM, respectively. The heat of dilution was measured by injection of the ligand into the buffer solution or by additional injections of ligand after saturation; the values obtained were subtracted from the heat of reaction to obtain the effective heat of binding. The resulting titration curves were fitted using the MicroCal Origin software, assuming one set of binding sites. Affinity constants (Ka) and enthalpy variations (ΔH) were determined, and the entropy variations (ΔS) were calculated from the equation: TΔS = ΔH + RTlnKa.

OAZ1 protein = system: OAZ1 protein; set-up: method as in PMID 11972449; details: HTC cells; cited from earlier work
[1] = biological target: T2, recombinant mOAZ1 protein (Mus musculus, UniProt P54369); experiment: Electrophoresis of mOAZ1-Polyamine complex (0.01% SDS in running buffer); assay type: binding; details: 200 μM polyamine, 30 min, 20 °C, pH 7.5
T2 construct: Full-length mOAZ1 protein was successfully produced in E. coli; made in house; host or cells: Escherichia coli Rosetta (DE3)
T2 sequence (P54369 whole entry): as above
Experimental: The recombinant mOAZ1 protein (1 μg/band) was incubated with 200 μM of a polyamine at room temperature for 30 min. Then the sample was quenched with a loading buffer (200 mM Tris-HCl, pH 6.8, 0.01% bromophenol blue, and 40% glycerol) and applied onto 12% polyacrylamide gel lacking SDS. Electrophoresis was carried out in a running buffer with decreased SDS concentration (25 mM Tris base; 250 mM glycine; and 0.01% SDS) at 70 V. The gel was stained with Coomassie R-250.

[2] = calculated as 1/Ka, no binding = not detected, Kd > 50 μM not detectable

| Stoichiometry mOAZ1/Polyamine (mouse OAZ1 (mOAZ1); ITC, 31 °C, pH 7.5, 150 mM KCl, 25% glycerol, protein 20 μM, ligand 200 μM) | ΔH (enthalpy variation) (mouse OAZ1 (mOAZ1); ITC, 31 °C) | Ka (affinity constant) (mouse OAZ1 (mOAZ1); ITC, 31 °C) | Binding to mOAZ1 (mouse OAZ1 (mOAZ1); ITC) | Kd (dissociation constant) (mouse OAZ1 (mOAZ1); [2]) | TΔS (entropy variation) (mouse OAZ1 (mOAZ1)) | Kd (mouse OAZ1 (mOAZ1); [2]) [nM] | Formation of (mOAZ1)2-Polyamine complex / dimerization [1] | SMILES | Half-life of OAZ1 protein (OAZ1 protein) |
| --- | --- | --- | --- | --- | --- | --- | --- | --- | --- |
| No binding ^f | No binding ^f | No binding ^f | did not | No binding ^f | No binding ^f |  |  | NCCCCN [Put, putrescine] |  |
|  | -5.1 kcal/mol | 750000 M⁻¹ | bound to mOAZ1 |  | 3.0 kcal/mol | 1300 |  | CCNCCCNCCCNCCCNCC [DENSpm, N^1,N^11-diethylnorspermine] |  |
|  |  |  |  |  |  |  |  | CCNCCCCNCCCCNCCCCNCCCCNC/C=C/CNCCCCNCCCCNCCCCNCCCCNCC [SL-11144] | did not increase the half-life of OAZ1 protein |
|  | -3.7 kcal/mol | 920000 M⁻¹ | bound to mOAZ1 |  | 4.5 kcal/mol | 1100 | induce dimerization of OAZ1 | NCCCNCCCCNCCCN [Spm, spermine] | did not increase the half-life of OAZ1 protein |
